{
  "source": "patent US9758484B2",
  "about": "(Asieris Pharmaceutical Technologies Co., Ltd., priority 2013, dated 2017)",
  "key": {"[1]": {"test": "Solubility tests of nitroxoline and nitroxoline salts in aqueous buffers and water", "type": "physicochemical", "conditions": "aqueous buffers pH 1.2 to 8, 25 °C, pH 1.2, aqueous buffer, thermodynamic from solid, all pHs tested, from pH 1.2 to 8; read-out: solubility at all pHs tested", "protocol": "1) Aqueous buffer solutions with varying pH were prepared as follows: • i. Water: distilled water; • ii. pH=1.2 buffer: 7.65 mL 36.5% HCl solution was diluted to 1000 mL with water; • iii. pH=4.5 buffer: 18 g sodium acetate and 9.8 mL acetic acid were diluted to 1000 mL with water; • iv. pH=5.0 buffer: sodium hydroxide was added to 0.2 mol/L monosodium phosphate (NaH2PO4) solution until the pH was adjusted to 5.0; • v. pH=6.0 buffer: 18 g sodium acetate were added into 20 mL acetic acid solution (1 M), and the mixture was diluted to 500 mL with water; • vi. pH=6.8 buffer: 250 mL of 0.2 M monopotassium phosphate (KH2PO4) solution were added to 118 mL of 0.2 M sodium hydroxide solution, and the mixture was diluted to 1000 mL with water; • vii. pH=7.4 buffer: 1.36 g monopotassium phosphate (KH2PO4) were added to 79 mL of 0.1 M sodium hydroxide solution, and the mixture was diluted to 200 mL with water; and • viii pH=8.0 buffer: 5.59 g potassium biphosphate (K2HPO4) and 0.41 g monopotassium. phosphate (KH2PO4) were added to 1000 mL water and mixed.\n2) Solubility tests were performed generally as follows:\nUnder a temperature of 25±2° C., 10 mg of each salt sample was weighed and added to a 100 mL volumetric bottle. 0.25 mL buffer was added to the bottle, which was shaken vigorously for 30 seconds every 5 min.\nIf the sample was not completely dissolved, 0.7 mL of the same buffer was added, and dissolution was observed by the same shaking procedure.\nIf the sample was not completely dissolved, 8.5 mL of the same buffer was added, and dissolution was observed by the same shaking procedure.\nIf the sample was not completely dissolved, 85 mL of the same buffer was added, and dissolution was observed by the same shaking procedure."}, "[2]": {"test": "In vivo urinary excretion of nitroxoline and nitroxoline salts in beagle dogs", "protocol": "Urine samples were collected in the following periods of time: 0-2, 2-4, 4-6, 6-8, 8-24 h. Urine samples were analyzed by LC/MS/MS method utilizing an Agilent 1100 HPLC system with a CTC auto-sampler, an AB API4000 mass spectrometer, and a column of ACQUITY UPLC BEH C18 (2.1*50 mm) Dexamethasone was used as an internal standard. […] The range of linearity was determined to be 25˜5000 ng/mL.\n(§1) The same study was repeated with APL-1092, nitroxoline lysine salt."}, "[3]": {"test": "In vivo urinary excretion of nitroxoline and nitroxoline salts in mice", "set-up": "species or system CD-1 ICR mice", "conditions": "41.8 mg/kg", "protocol": "Urine samples were collected in the following periods of time: 0-2, 2-6, 6-24 h. Due to the small volume of the urine from mice, the collecting system in the cage was washed with water at each collecting time. Urine samples and their wash samples were analyzed according to the same methods used in the beagle dog study (Example 24).\nas §1"}, "[4]": {"conditions": "humans, orally administered; cited from earlier work"}},
  "note": "“And” between values parts separate entries of the source, which are not always exact repeats. Identical values can stand only once.",
  "data": [
    {"smiles": "O=[N+]([O-])c1ccc(O)c2ncccc12", "note": "[APL-1202, nitroxoline, reference compound]", "values": [
      {"measurement": "solubility at 30 min", "setting": "[1]", "result": "< 100", "unit": "µg/mL"},
      {"measurement": "24-Hr Accumulated drug in the urine", "setting": "[2]; In Dogs, 75 mg APL-1202 or equivalent amount", "result": 97, "unit": "µg"},
      {"measurement": "f (%): percentage of total mass of excreted drug versus the dose amount", "setting": "[2]; individual dogs, oral tablet, 75 mg nitroxoline equivalent", "result": "0.074% and 0.11% and 0.205%"},
      {"measurement": "Total mass of nitroxoline in urine", "setting": "[2]; individual dogs, oral tablet, 75 mg nitroxoline equivalent, 0-24 hr", "result": "55350 ng and 82489 ng and 153888 ng"},
      {"measurement": "Mass of nitroxoline in urine, 0-2 hr", "setting": "[2]; individual dogs, oral tablet, 75 mg nitroxoline equivalent, collection 0-2 hr", "result": "5670 ng and 60420 ng and 105600 ng"},
      {"measurement": "Mass of nitroxoline in urine, 2-4 hr", "setting": "[2]; individual dogs, oral tablet, 75 mg nitroxoline equivalent, collection 2-4 hr", "result": "0 ng and 13005 ng and 5502 ng"},
      {"measurement": "Mass of nitroxoline in urine, 4-6 hr", "setting": "[2]; individual dogs, oral tablet, 75 mg nitroxoline equivalent, collection 4-6 hr", "result": "0 ng and 817 ng and 28696 ng"},
      {"measurement": "Mass of nitroxoline in urine, 6-8 hr", "setting": "[2]; individual dogs, oral tablet, 75 mg nitroxoline equivalent, collection 6-8 hr", "result": "0 ng and 2582 ng and 5808 ng"},
      {"measurement": "Mass of nitroxoline in urine, 8-24 hr", "setting": "[2]; individual dogs, oral tablet, 75 mg nitroxoline equivalent, collection 8-24 hr", "result": "49680 ng and 5664 ng and 8282 ng"},
      {"measurement": "f (%): percentage of total mass of excreted drug versus the dose amount, Mean", "setting": "[2]; mean of dogs, oral tablet, 75 mg nitroxoline equivalent", "result": 0.13, "unit": "%"},
      {"measurement": "Total mass of nitroxoline in urine, Mean", "setting": "[2]; mean of dogs, oral tablet, 75 mg nitroxoline equivalent, 0-24 hr", "result": 97242, "unit": "ng"},
      {"measurement": "Mass of nitroxoline in urine, 0-2 hr, Mean", "setting": "[2]; mean of dogs, oral tablet, 75 mg nitroxoline equivalent, collection 0-2 hr", "result": 57230, "unit": "ng"},
      {"measurement": "Mass of nitroxoline in urine, 2-4 hr, Mean", "setting": "[2]; mean of dogs, oral tablet, 75 mg nitroxoline equivalent, collection 2-4 hr", "result": 9254, "unit": "ng"},
      {"measurement": "Mass of nitroxoline in urine, 4-6 hr, Mean", "setting": "[2]; mean of dogs, oral tablet, 75 mg nitroxoline equivalent, collection 4-6 hr", "result": 14757, "unit": "ng"},
      {"measurement": "Mass of nitroxoline in urine, 6-8 hr, Mean", "setting": "[2]; mean of dogs, oral tablet, 75 mg nitroxoline equivalent, collection 6-8 hr", "result": 4195, "unit": "ng"},
      {"measurement": "Mass of nitroxoline in urine, 8-24 hr, Mean", "setting": "[2]; mean of dogs, oral tablet, 75 mg nitroxoline equivalent, collection 8-24 hr", "result": 21209, "unit": "ng"},
      {"measurement": "24-Hr Accumulated drug in the urine", "setting": "[3]; In Mice, 41.8 mg/Kg APL-1202 or equivalent dose", "result": 79.8, "unit": "µg"},
      {"measurement": "Total mass of nitroxoline in urine and wash", "setting": "[3]; individual mice, oral, equivalent of 41.8 mg/Kg nitroxoline, 0-24 hr", "result": "124391 ng and 50517 ng and 23093 ng and 41201 ng and 88137 ng and 151622 ng"},
      {"measurement": "f (%): percentage of total mass of excreted drug versus the dose amount", "setting": "[3]; individual mice, oral, equivalent of 41.8 mg/Kg nitroxoline", "result": "15.2% and 6.17% and 2.94% and 5.24% and 10.9% and 19.5%"},
      {"measurement": "Mass of nitroxoline, 0~2 wash", "setting": "[3]; individual mice, oral, equivalent of 41.8 mg/Kg nitroxoline, cage wash 0~2 hr", "result": "2856 ng and 6652.8 ng and 784 ng and 4212 ng and 8250 ng and 2352 ng"},
      {"measurement": "Mass of nitroxoline, 2~6 wash", "setting": "[3]; individual mice, oral, equivalent of 41.8 mg/Kg nitroxoline, cage wash 2~6 hr", "result": "1283 ng and 5325 ng and 957 ng and 2904 ng and 1530 ng and 346 ng"},
      {"measurement": "Mass of nitroxoline, 6~24 wash", "setting": "[3]; individual mice, oral, equivalent of 41.8 mg/Kg nitroxoline, cage wash 6~24 hr", "result": "249 ng and 1428 ng and 2341 ng and 1558 ng and 1102 ng and 152 ng"},
      {"measurement": "Mass of nitroxoline in urine, 0-2 hr", "setting": "[3]; individual mice, oral, equivalent of 41.8 mg/Kg nitroxoline, urine 0-2 hr", "result": "109552 ng and 10584 ng and 1360 ng and 21035 ng and 61040 ng and 137700 ng"},
      {"measurement": "Mass of nitroxoline in urine, 2-6 hr", "setting": "[3]; individual mice, oral, equivalent of 41.8 mg/Kg nitroxoline, urine 2-6 hr", "result": "10404 ng and 26418 ng and 17600 ng and 11412 ng and 14715 ng and 11000 ng"},
      {"measurement": "Mass of nitroxoline in urine, 6-24 hr", "setting": "[3]; individual mice, oral, equivalent of 41.8 mg/Kg nitroxoline, urine 6-24 hr", "result": "47.8 ng and 109 ng and 50.9 ng and 81 ng and 1500 ng and 71.5 ng"},
      {"measurement": "Total mass of nitroxoline in urine and wash, Mean", "setting": "[3]; mean of mice, oral, equivalent of 41.8 mg/Kg nitroxoline, 0-24 hr", "result": 79827, "unit": "ng"},
      {"measurement": "f (%): percentage of total mass of excreted drug versus the dose amount, Mean", "setting": "[3]; mean of mice, oral, equivalent of 41.8 mg/Kg nitroxoline", "result": 10, "unit": "%"},
      {"measurement": "Mass of nitroxoline, 0~2 wash, Mean", "setting": "[3]; mean of mice, oral, equivalent of 41.8 mg/Kg nitroxoline, cage wash 0~2 hr", "result": 4184, "unit": "ng"},
      {"measurement": "Mass of nitroxoline, 2~6 wash, Mean", "setting": "[3]; mean of mice, oral, equivalent of 41.8 mg/Kg nitroxoline, cage wash 2~6 hr", "result": 2057, "unit": "ng"},
      {"measurement": "Mass of nitroxoline, 6~24 wash, Mean", "setting": "[3]; mean of mice, oral, equivalent of 41.8 mg/Kg nitroxoline, cage wash 6~24 hr", "result": 1138, "unit": "ng"},
      {"measurement": "Mass of nitroxoline in urine, 0-2 hr, Mean", "setting": "[3]; mean of mice, oral, equivalent of 41.8 mg/Kg nitroxoline, urine 0-2 hr", "result": 56879, "unit": "ng"},
      {"measurement": "Mass of nitroxoline in urine, 2-6 hr, Mean", "setting": "[3]; mean of mice, oral, equivalent of 41.8 mg/Kg nitroxoline, urine 2-6 hr", "result": 15258, "unit": "ng"},
      {"measurement": "Mass of nitroxoline in urine, 6-24 hr, Mean", "setting": "[3]; mean of mice, oral, equivalent of 41.8 mg/Kg nitroxoline, urine 6-24 hr", "result": 310, "unit": "ng"},
      {"measurement": "half-life (t1/2)", "setting": "[4]", "result": 2.63, "unit": "h"}
    ]}
  ]
}
